{
  "source": "patent US9128087B2",
  "about": "“Nuclear receptor assay” (PamGene B.V., priority 2006, dated 2015)",
  "target": "T1, PPAR gamma (Homo sapiens, UniProt P37231)",
  "T1 construct": "were incubated with GST-tagged PPAR gamma LBD domain (Invitrogen); purchased Invitrogen",
  "T1 sequence (P37231 238-503 limits assumed)": "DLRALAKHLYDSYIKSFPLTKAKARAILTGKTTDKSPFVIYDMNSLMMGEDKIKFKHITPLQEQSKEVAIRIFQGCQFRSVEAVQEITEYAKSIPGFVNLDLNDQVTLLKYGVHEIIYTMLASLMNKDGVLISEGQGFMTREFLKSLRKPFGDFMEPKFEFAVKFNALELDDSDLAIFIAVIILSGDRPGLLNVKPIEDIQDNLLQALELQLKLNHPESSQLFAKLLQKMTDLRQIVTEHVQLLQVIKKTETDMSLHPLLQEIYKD",
  "test": "PamChip microarray binding of PPAR gamma LBD to 48 co-regulator derived peptides",
  "assay_type": "biochemical",
  "details": "1E-3.7 M ligand compared to array without ligand",
  "method": "A microarray set-up was prepared comprising 48 peptides immobilized, i.e., a set of 48 co-regulator-derived motifs corresponding to SEQ ID NOs 1, 3-13, 15-46, and 50-53. In this experiment each peptide was present once on the array and at a single peptide concentration (1E-1 M spotting concentration). Preparation of these chips was as described in Example 1. Twelve wells of a 96 well plate (FIG. 2A(a)), each well comprising the same peptide microarray, were incubated with GST-tagged PPAR gamma LBD domain (Invitrogen), and 11 different concentrations of ligand and 1 control (absence of ligand). […]\nFIG. 2A(b) represents the top view of a row of wells in a 96-well plate (FIG. 2A(a)), showing the fluorescence results obtained for the PAR gamma interaction, induced by GW1929, with a the 48 peptide motives. A magnification is shown of the fluorescence image of the microarray incubated with the highest concentration (1E-3.7 M) of GW1929. […] However, when the effect of GW1929 is read out on peptide 45 (SEQ ID NO. 45), derived from PPRB (PPAR binding protein), this ligand is characterized as a binding agonist. […] As said, for all peptides an EC50 value could be determined, but in FIG. 3 only the values that could be determined accurately (regression coefficient of the fit better than 0.7) are represented.",
  "data": [
    {"substance": "GW1929", "values": [
      {"measurement": "binding of PPAR gamma to peptide 31 (SEQ ID NO. 31, NCOR1)", "value": "decreased binding"},
      {"measurement": "binding of PPAR gamma to peptide 45 (SEQ ID NO. 45, PPRB)", "value": "increase binding"}
    ]}
  ]
}
